Experimental data taken from US20240174690A1, “ANNULATED 2-AMINO-3-CYANO THIOPHENES AND DERIVATIVES FOR THE TREATMENT OF CANCER” (BOEHRINGER INGELHEIM INTERNATIONAL GMBH, priority 2021, published 2024).

Assays:
KRAS (G12D)::SOS1 = KRAS (G12D)::SOS1 (Homo sapiens (Human), UniProt P01116, G12D); experiment: KRAS::SOS1 AlphaScreen binding assay, KRAS G12D
How it was run: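 Compounds (up to 100 μM, eleven fivefold dilutions in duplicate) were incubated 30 min with KRAS 1-169 (10 nM, or 7.5 nM for G12C), GST-SOS1 564-1049 (5 nM for G12D/G12C, 10 nM for others) and 10 μM GDP in PBS buffer with BSA and Tween. Donor/acceptor beads were then added for 60 min at room temperature, and IC50 came from a 4-parameter fit of the AlphaScreen signal.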

[1] = Metabolic (microsomal) stability assay, human liver microsomes (HLM); type: in vitro ADME; conditions: predicted clearance as percent of liver blood flow, 1 μM
How it was run: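 LC-MS/MS tracked parent disappearance at 0, 5, 15, 30 and 60 min in NADPH-initiated incubations with 1 mg/mL human microsomal protein and 1 μM compound at 37°C, pH 7.5. First-order fits gave intrinsic clearance, which was scaled up and reported as % QH. NADPH-free controls were also run.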

Sequence of KRAS (G12D)::SOS1 (P01116 other isoform, or with tags, fused parts or gaps G12D): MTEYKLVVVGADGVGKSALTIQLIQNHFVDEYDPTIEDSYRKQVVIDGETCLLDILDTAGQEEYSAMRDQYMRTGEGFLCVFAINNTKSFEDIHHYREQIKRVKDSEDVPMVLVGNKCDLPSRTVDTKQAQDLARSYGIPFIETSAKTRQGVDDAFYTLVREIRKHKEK

Row | Compound | IC50 (KRAS (G12D)::SOS1) [nM] | HLM QH [1] [%]
1 | C[C@H](Oc1cc(Cl)nc(-c2onc3c2CCC[C@@]32CCCc3sc(N)c(C#N)c32)n1)[C@@H]1CCCN1C [I-1] | 3 | 79
2 | C[C@H](Oc1nc(-c2onc3c2CCC[C@@]32CCCc3sc(N)c(C#N)c32)cc(N2CCNC3(CC3)C2)n1)[C@@H]1CCCN1C [I-2] | 2 | 44
3 | C[C@H](Oc1cc(N2CCNC3(CCC3)C2)nc(-c2onc3c2CCC[C@@]32CCCc3sc(N)c(C#N)c32)n1)[C@@H]1CCCN1C [I-3] | 1 | <24
4 | C[C@H](Oc1cc(N2CCNC3(COC3)C2)nc(-c2onc3c2CCC[C@@]32CCCc3sc(N)c(C#N)c32)n1)[C@@H]1CCCN1C [I-4] | 1 | <24
5 | C[C@H](Oc1cc(-n2ccnc2)nc(-c2onc3c2CCC[C@@]32CCCc3sc(N)c(C#N)c32)n1)[C@@H]1CCCN1C [I-20] | 2 | 30
6 | C[C@H](Oc1cc(-c2ccn(C)n2)nc(-c2onc3c2CCC[C@@]32CCCc3sc(N)c(C#N)c32)n1)[C@@H]1CCCN1C [I-21] | 4 | 44
7 | C[C@H](Oc1cc([C@@H]2CCOC2)nc(-c2onc3c2CCC[C@@]32CCCc3sc(N)c(C#N)c32)n1)[C@@H]1CCCN1C [I-22] | 1 | 37
8 | CO[C@@H]1C[C@@H]([C@H](C)Oc2cc(-c3ccn(C)n3)nc(-c3onc4c3CCC[C@@]43CCCc4sc(N)c(C#N)c43)n2)N(C)C1 [I-23] | 7 | 45
9 | Cc1nc(-c2cc(O[C@@H](C)[C@@H]3CCCN3C)nc(-c3onc4c3CCC[C@@]43CCCc4sc(N)c(C#N)c43)n2)cs1 [I-24] | 2 | <24
10 | C[C@H](Oc1cc(-c2ccc(N)nc2)nc(-c2onc3c2CCC[C@@]32CCCc3sc(N)c(C#N)c32)n1)[C@@H]1CCCN1C [I-25] | 5 | <24
11 | C[C@H](Oc1cc(-c2ccn(CC(C)(C)O)n2)nc(-c2onc3c2CCC[C@@]32CCCc3sc(N)c(C#N)c32)n1)[C@@H]1CCCN1C [I-26] | 3 | <24
12 | C[C@H](Oc1cc(-c2cnsc2)nc(-c2onc3c2CCC[C@@]32CCCc3sc(N)c(C#N)c32)n1)[C@@H]1CCCN1C [I-27] | 3 | <24
13 | Cc1ccc(-c2cc(O[C@@H](C)[C@@H]3CCCN3C)nc(-c3onc4c3CCC[C@@]43CCCc4sc(N)c(C#N)c43)n2)cn1 [I-28] | 10 | <24
14 | C[C@H](Oc1cc(-n2nccn2)nc(-c2onc3c2CCC[C@@]32CCCc3sc(N)c(C#N)c32)n1)[C@@H]1CCCN1C [I-29] | 6 | 27
15 | C[C@H](Oc1cc(-c2ccn(C[C@@H](C)O)n2)nc(-c2onc3c2CCC[C@@]32CCCc3sc(N)c(C#N)c32)n1)[C@@H]1CCCN1C [I-30] | 2 | <24
16 | C[C@H](O)Cn1ccc(-c2cc(O[C@@H](C)[C@@H]3CCCN3C)nc(-c3onc4c3CCC[C@@]43CCCc4sc(N)c(C#N)c43)n2)n1 [I-31] | 3 | <24
17 | C[C@H](Oc1cc(-n2ccnn2)nc(-c2onc3c2CCC[C@@]32CCCc3sc(N)c(C#N)c32)n1)[C@@H]1CCCN1C [I-32] | 2 | 45
18 | C[C@H](Oc1cc(-c2ccn3ncnc3c2)nc(-c2onc3c2CCC[C@@]32CCCc3sc(N)c(C#N)c32)n1)[C@@H]1CCCN1C [I-33] | 6 | <24
19 | C[C@H](Oc1cc(-c2ccn(C3COC3)n2)nc(-c2onc3c2CCC[C@@]32CCCc3sc(N)c(C#N)c32)n1)[C@@H]1CCCN1C [I-34] | 4 | <24
20 | C[C@H](Oc1cc(N2CCN(C)C3(COC3)C2)nc(-c2onc3c2CCC[C@@]32CCCc3sc(N)c(C#N)c32)n1)[C@@H]1C[C@@H](F)CN1C [I-37] | 1 | 51
21 | C[C@H](Oc1cc(N2CCN(C)C3(CC3)C2)nc(-c2onc3c2CCC[C@@]32CCCc3sc(N)c(C#N)c32)n1)[C@@H]1C[C@@H](F)CN1C [I-39] | 1 | 39
22 | C[C@H](Oc1nc(-c2onc3c2CCC[C@@]32CCCc3sc(N)c(C#N)c32)cc(N2CCN(C)C3(CC3)C2)n1)[C@@H]1CCCN1C [I-40] | 6 | 42
23 | C[C@H](Oc1cc(N2CCN(C)C3(CC3)C2)nc(-c2onc3c2CCC[C@@]32CCCc3sc(N)c(C#N)c32)n1)[C@@H]1CCCN1C [I-41] | 1 | <24
24 | C[C@H]1CN(C)CCCN1c1nc(-c2onc3c2CCC[C@@]32CCCc3sc(N)c(C#N)c32)cc(N2CCN(C)C3(CC3)C2)n1 [I-42] | 35 | 42

Row | Compound | IC50 (KRAS (G12D)::SOS1) [nM] | HLM QH [1] [%]
25 | C[C@H](Oc1cc(N2C[C@H](C)N(C)[C@@H](C)C2)nc(-c2onc3c2CCC[C@@]32CCCc3sc(N)c(C#N)c32)n1)[C@@H]1CCCN1C [I-43] | 1 | <24
26 | C[C@H](Oc1cc(N2CCN(C)C3(CCC3)C2)nc(-c2onc3c2CCC[C@@]32CCCc3sc(N)c(C#N)c32)n1)[C@@H]1CCCN1C [I-44] | 2 | <24
27 | C[C@H](Oc1cc(N2CCNC3(CC3)C2)nc(-c2onc3c2CCC[C@@]32CCCc3sc(N)c(C#N)c32)n1)[C@@H]1C[C@@H](F)CN1C [I-45] | 1 | 45
28 | CO[C@H]1CCN(C)[C@@H]1[C@H](C)Oc1cc(-n2ccc(CC(=O)NC(C)C)n2)nc(-c2onc3c2CCC[C@@]32CCCc3sc(N)c(C#N)c32)n1 [I-48] | 1 | 51
29 | CO[C@H]1CCN(C)[C@@H]1[C@H](C)Oc1cc(N2CCNC3(CC3)C2)nc(-c2onc3c2CCC[C@@]32CCCc3sc(N)c(C#N)c32)n1 [I-49] | 1 | 40
30 | CO[C@@H]1C[C@@H]([C@H](C)Oc2cc(N3CCN(C)C4(CC4)C3)nc(-c3onc4c3CCC[C@@]43CCCc4sc(N)c(C#N)c43)n2)N(C)C1 [I-50] | 1 | 44
31 | CO[C@H]1CCN(C)[C@@H]1[C@H](C)Oc1cc(-n2ccc(C(=O)N[C@@H]3CCOC3)n2)nc(-c2onc3c2CCC[C@@]32CCCc3sc(N)c(C#N)c32)n1 [I-53] | 1 | 56
32 | CO[C@H]1CCN(C)[C@@H]1[C@H](C)Oc1cc(-n2ccc(C(=O)N[C@H]3CCOC3)n2)nc(-c2onc3c2CCC[C@@]32CCCc3sc(N)c(C#N)c32)n1 [I-54] | 1 | 52
33 | COCCNC(=O)c1ccn(-c2cc(O[C@@H](C)[C@@H]3[C@@H](OC)CCN3C)nc(-c3onc4c3CCC[C@@]43CCCc4sc(N)c(C#N)c43)n2)n1 [I-55] | 1 | 56
34 | C[C@H](Oc1cc(-n2ccc(C(=O)N[C@@H]3CCOC3)n2)nc(-c2onc3c2CCC[C@@]32CCCc3sc(N)c(C#N)c32)n1)[C@@H]1CCCN1C [I-56] | 2 | 25
35 | C[C@H](Oc1cc(-n2ccc(C(=O)N[C@H]3CCOC3)n2)nc(-c2onc3c2CCC[C@@]32CCCc3sc(N)c(C#N)c32)n1)[C@@H]1CCCN1C [I-57] | 2 | –
36 | COCCNC(=O)c1ccn(-c2cc(O[C@@H](C)[C@@H]3CCCN3C)nc(-c3onc4c3CCC[C@@]43CCCc4sc(N)c(C#N)c43)n2)n1 [I-58] | 1 | 34
37 | C[C@H](NC(=O)c1ccn(-c2cc(O[C@@H](C)[C@@H]3CCCN3C)nc(-c3onc4c3CCC[C@@]43CCCc4sc(N)c(C#N)c43)n2)n1)c1ccccn1 [I-59] | 1 | <24
38 | C[C@H](Oc1cc(-n2ccc(C(=O)N(C)C3COC3)n2)nc(-c2onc3c2CCC[C@@]32CCCc3sc(N)c(C#N)c32)n1)[C@@H]1CCCN1C [I-60] | 1 | <24
39 | C[C@H](Oc1cc(N2CC(N(C)C)C2)nc(-c2noc3c2CCC[C@@]32CCCc3sc(N)c(C#N)c32)n1)[C@@H]1CCCN1C [II-7] | 1 | <24
40 | C[C@H](Oc1cc(N2CCN(CCO)CC2)nc(-c2noc3c2CCC[C@@]32CCCc3sc(N)c(C#N)c32)n1)[C@@H]1CCCN1C [II-8] | 1 | <24
41 | C[C@H](Oc1cc(N2C[C@@H](N(C)C)[C@@H](O)C2)nc(-c2noc3c2CCC[C@@]32CCCc3sc(N)c(C#N)c32)n1)[C@@H]1CCCN1C [II-10] | 2 | <24
42 | C[C@H](Oc1cc(N2C[C@@H](N(C)C)[C@@H](F)C2)nc(-c2noc3c2CCC[C@@]32CCCc3sc(N)c(C#N)c32)n1)[C@@H]1CCCN1C [II-11] | 1 | <24
43 | C[C@H](Oc1cc(N2CC[C@H](N3CCCCC3)C2)nc(-c2noc3c2CCC[C@@]32CCCc3sc(N)c(C#N)c32)n1)[C@@H]1CCCN1C [II-12] | 1 | <24
44 | C[C@H](Oc1cc(N2CCN(C)C3(COC3)C2)nc(-c2noc3c2CCC[C@@]32CCCc3sc(N)c(C#N)c32)n1)[C@@H]1CCCN1C [II-13] | 1 | <24
45 | C[C@H](Oc1cc(N2CCNCC2)nc(-c2noc3c2CCC[C@@]32CCCc3sc(N)c(C#N)c32)n1)[C@@H]1CCCN1C [II-45] | 1 | –
46 | C[C@H](Oc1cc(-n2ccsc2=O)nc(-c2noc3c2CCC[C@@]32CCCc3sc(N)c(C#N)c32)n1)[C@@H]1CCCN1C [II-135] | – | 54
47 | [2H]C([2H])([2H])N1C[C@H](F)C[C@H]1[C@H](C)Oc1cc(N2CCNC3(CC3)C2)nc(-c2noc3c2CCC[C@@]32CCCc3sc(N)c(C#N)c32)n1 [II-208] | – | 48
48 | [2H]C([2H])([2H])N1C[C@H](F)C[C@H]1[C@H](C)Oc1cc(N2CCN(C)C3(CC3)C2)nc(-c2noc3c2CCC[C@@]32CCCc3sc(N)c(C#N)c32)n1 [II-209] | – | 40
